Results as given in paper PMC8175240, “Integrase-derived peptides together with CD24-targeted lentiviral particles inhibit the growth of CD24 expressing cancer cells” (Oncogene, 2021).
In brackets after ≈: the same amount, converted by molar mass. Residues, ends and D or L forms follow the SMILES beside them.

Legend:
CHO-WBL cells = experiment: Chromosomal aberration assay (genotoxicity); assay type: cell-based, Chinese hamster; conditions: CP 2.5, +S9, 3 h treatment, harvest 22 h
Protocol: All cells were cultured for 22 h after initiation of INS treatment.

[1] = Stability test in human plasma; assay type: in vitro ADME; conditions: for Analyte Remaining % / Concentration calculated from LC-MS data: human plasma, 10 mg/ml stock into plasma 1:1, LC-MS; for Concentration calculated from LC-MS data: methanol precipitation, 0.45 µm filtration
Protocol: (§1) Analytic HPLC-MS was performed using an Agilent 1260 series Liquid Chromatography/Mass Selective Detector (MSD) equipped with an electrospray interface and a UV diode array detector. Analyses were performed on an ACE C8, 50 × 3.0 mm, 3 µm column, with an isocratic 0.1% formic acid/ACN eluent, at a rate of 1 ml/min over a period of 5 min. UV absorption was measured at 280 nm, 220 nm, and 215–395 nm. MS analysis was performed with ESI (electron spray ionization) with a positive ionization method.
(§2) Four reaction systems were prepared; INS and INR2 in human plasma, INS and INR2 in rat plasma (Supplementary Table 2). Freshly prepared 10 mg/ml stock solution of the peptides was injected into plasma or PBS solution (1:1). The mixture was diluted with methanol to precipitate the plasma proteins. The samples were filtered through PTFE 0.45 µm filters and run in LC-MS. Samples were taken at the following times: 0, 15, 30, 60, 120, 240, and 480 min and after 24 h.

[2] = Solubility of IN-derived peptides in PBS; assay type: physicochemical; conditions: for Solubility: at 0 min, verified at 60 min, LC-MS
Protocol: as §1, §2
(§3) Plasma solubility was determined at 0 min and was verified at 60 min (if no degradation was observed).

[3] = Solubility of IN-derived peptides in human plasma; assay type: physicochemical; conditions: LC-MS
Protocol: as §1, §2, §3

[4] = Solubility of IN-derived peptides in rat plasma; assay type: physicochemical; conditions: LC-MS
Protocol: as §1, §2, §3

[5] = Stability test in rat plasma; assay type: in vitro ADME; conditions: for Analyte Remaining %: 10 mg/ml stock into plasma 1:1, LC-MS; for Concentration calculated from LC-MS data: 10 mg/ml stock into plasma 1:1, methanol precipitation, 0.45 µm filtration
Protocol: as §1, §2

H1975 lung cancer cells [6] = experiment: Cytotoxicity of peptides without lentiviral particles, MTT; assay type: cell-based, human; conditions: peptide alone, three times over ten days
Protocol: H1975 lung cancer cells were treated three times over the course of 10 days (on days 2, 4, and 7) with different concentrations of the tested peptides. Following ten days of incubation, cells were analyzed for potential toxicity using a quantitative cell viability test, the MTT assay.

H1975 lung cancer cells [7] = experiment: Microscopic observation of GFP incorporation; assay type: cell-based, human; conditions: 30 MOI LV-CD24 and 25 µM INS with 50 µM Raltegravir; 24 h post-treatment
Protocol: Fig. 2 The effect of IN-derived peptides on cell survival. A Schematic illustration of the treatment protocol. B Microscopic observation of the GFP incorporation inhibition by Raltegravir. H1975 lung cancer cells were exposed to 30 MOI LV-CD24 and 25 µM INS with or without the addition of 50 µM Raltegravir. Images were taken 24 h post-treatment. C 2000 Panc-1 (left) and H1975 (right) cells were seeded in 96-well plates and were treated with the different items as described. Cell survival was measured by the enzymatic WST-1 (left) and MTT assays (right). % Survival was calculated as the percentage of living cells remaining after treatment with respect to non-treated cells.

Panc-1 cells = experiment: Cell survival after CD24-targeted lentivirus plus peptide, WST-1; assay type: cell-based, human; conditions: Raltegravir added to LV-CD24 plus INS or INR2
Protocol: (§4) The cell-killing effect of the system was measured by the MTT3-(4,5-dimethylthiazol-2-yl)-2,5-diphenyltetrazoliumenzymatic assay or by 2-(4-iodophenyl)-3-(4-nitrophenyl)-5-(2,4-disulfophenyl)-2H-tetrazolium (WST-1) assay. Two thousand cultured cells were seeded onto 96-well plates (in culture media, DMEM, or RPMI). After 24 h, different concentrations of the diverse peptides (and inhibitors) were added for 3 h. Thirty MOI of the targeted lentiviral particles were added to the cells and the plates centrifuged for 90 min at 800×g, 20 °C. Three and six days later, this procedure (peptides/inhibitor and LV treatments) was repeated. On the tenth day, cell viability was analyzed either by MTT or by WST-1; the media was replaced by fresh media (100 μl per well) containing 1 mg/ml MTT, and the cells were incubated for 2–4 more hours. MTT-formazan crystals were dissolved by the addition of extraction solution (0.1 N HCl in absolute isopropanol). Absorbance at 570 nm and a reference wavelength of 690 nm was recorded on an automated microplate reader. For WST-1, media was replaced and WST-1 was added directly to the culture wells followed by incubation of 10–60 min at 37 °C. Plates were read by an automated microplate reader by measuring the absorbance of the dye with a wavelength of 450 nm and a reference wavelength of 630 nm.

[8] = system: CD24 expressing cancer cells; assay type: cell-based, human; conditions: abstract
H1975 cells = experiment: Cell survival after CD24-targeted lentivirus plus peptide, MTT; assay type: cell-based, human; conditions: Raltegravir added to LV-CD24 plus INS or INR2
Protocol: as §4

[9] = from 5 mg/mL sample (10 mg/ml stock into plasma 1:1), at 0 min, verified at 60 min, methanol precipitation, PTFE 0.45 µm filtration

SMILES: O=P1(N(CCCl)CCCl)NCCCO1 (stereo not shown) [CP, cyclophosphamide monohydrate, reference compound]
- % Gaps (CHO-WBL cells): 4.0%
- % Structural aberration without gaps (CHO-WBL cells): 47.0%
- Cells with endoreduplication (%) (CHO-WBL cells): 3.0%
- Cells with polyploidy (%) (CHO-WBL cells): 0.0%
- Cytotoxicity (%) (CHO-WBL cells; cell growth inhibition relative to negative control): 50%
- % Structural aberrant cells (CHO-WBL cells; cells with only gaps not included, *p ≤ 0.05 Fisher's Exact test): 35.0* %

SMILES: CC(C)[C@H](NC(=O)[C@@H](NC(=O)[C@@H](NC(=O)[C@H](CO)NC(=O)[C@@H](NC(=O)[C@H](Cc1ccccc1)NC(=O)[C@H](CC(N)=O)NC(=O)[C@H](CO)NC(=O)CNC(=O)[C@@H](N)Cc1c[nH]c2ccccc12)[C@@H](C)O)[C@@H](C)O)[C@@H](C)O)C(=O)N[C@@H](CCCCN)C(=O)N[C@@H](C)C(=O)O [INR] (H-WGSNFTSTTVKA-OH)
- Stability ([1]; both types of sera (rat and human plasma), for the entire 24 h): 40%
- Analyte Remaining % ([1]; 0 h): 40.9%
- Concentration calculated from LC-MS data ([1]; 0 h): 2050 µg/mL
- Analyte Remaining % ([1]; 0.25 h): 40.3%
- Concentration calculated from LC-MS data ([1]; 0.25 h): 2020 µg/mL
- Analyte Remaining % ([1]; 0.5 h): 45.3%
- Concentration calculated from LC-MS data ([1]; 0.5 h): 2270 µg/mL
- Analyte Remaining % ([1]; 1 h): 47.3%
- Concentration calculated from LC-MS data ([1]; 1 h): 2370 µg/mL
- Analyte Remaining % ([1]; 2 h): 39.2%
- Concentration calculated from LC-MS data ([1]; 2 h): 1960 µg/mL
- Analyte Remaining % ([1]; 4 h): 41.2%
- Concentration calculated from LC-MS data ([1]; 4 h): 2060 µg/mL
- Analyte Remaining % ([1]; 8 h): 38.3%
- Concentration calculated from LC-MS data ([1]; 8 h): 1910 µg/mL
- Analyte Remaining % ([1]; 24 h): 38.9%
- Concentration calculated from LC-MS data ([1]; 24 h): 1950 µg/mL
- Stability ([1]; rat and human plasma, ~4 h incubation): 40%
- Solubility ([2]; % of 5 mg/mL sample): 66.2%
- Solubility ([2]; from 5 mg/mL sample (10 mg/ml stock into PBS 1:1), methanol dilution, PTFE 0.45 µm filtration): 3.31 mg/mL (≈ 2550 µM)
- Solubility (in words) ([2]; rat and human plasma): highly soluble
- Solubility ([3]; % of 5 mg/mL sample): 44.2%
- Solubility [3, 9]: 2.21 mg/mL (≈ 1700 µM)
- Solubility ([4]; % of 5 mg/mL sample): 42.6%
- Solubility [4, 9]: 2.13 mg/mL (≈ 1640 µM)
- Analyte Remaining % ([5]; 0 h): 41.8%
- Concentration calculated from LC-MS data ([5]; 0 h): 2090 µg/mL
- Analyte Remaining % ([5]; 0.25 h): 51.1%
- Concentration calculated from LC-MS data ([5]; 0.25 h): 2560 µg/mL
- Analyte Remaining % ([5]; 0.5 h): 34.3%
- Concentration calculated from LC-MS data ([5]; 0.5 h): 1710 µg/mL
- Analyte Remaining % ([5]; 1 h): 43.5%
- Concentration calculated from LC-MS data ([5]; 1 h): 2170 µg/mL
- Analyte Remaining % ([5]; 2 h): 43.6%
- Concentration calculated from LC-MS data ([5]; 2 h): 2180 µg/mL
- Analyte Remaining % ([5]; 4 h): 38.2%
- Concentration calculated from LC-MS data ([5]; 4 h): 1910 µg/mL
- Analyte Remaining % ([5]; 8 h): 35.3%
- Concentration calculated from LC-MS data ([5]; 8 h): 1760 µg/mL
- Analyte Remaining % ([5]; 24 h): 36.9%
- Concentration calculated from LC-MS data ([5]; 24 h): 1840 µg/mL
- Effect on lung cancer cell viability (H1975 lung cancer cells [6]): no effect

SMILES: Cc1nnc(C(=O)NC(C)(C)c2nc(C(=O)NCc3ccc(F)cc3)c(O)c(=O)n2C)o1 [Raltegravir]
- Effect on GFP fluorescence of INS-treated cells (H1975 lung cancer cells [7]): nearly eliminated
- Effect on cell death induced by LV plus peptide (Panc-1 cells): successfully suppressed the observed cell death
- Effect on induction of apoptosis [8]: inhibited the induction of apoptosis
- Effect on cell death induced by LV plus peptide (H1975 cells): successfully suppressed the observed cell death
